Results: patent US20110212100A1, “METHODS FOR MODULATING DEVELOPMENT AND EXPANSION OF IL-17 EXPRESSING CELLS” (priority 2007, published 2011)

Legend:
T-cells and fibroblasts = experiment: Effects on pro-inflammatory and pro-fibrotic gene expression in T-cells and fibroblasts in vitro; format: cell-based
Method: At concentrations over 80 nM, HF has a variety of non-specific effects on both T-cells and fibroblasts. […] At the recommended tolerated dose for chronic treatment (0.5 mg/day), plasma levels of HF were ˜0.5 ng/ml (1 nM). (de.Jonge et al., Eur J Cancer, vol. 42(12):1768-74 (2006)).
In T-cells and fibroblasts in vitro, HF has highly specific effects on pro-inflammatory and pro-fibrotic gene expression in a dose range of ˜2-40 nM. At doses>80 nM, non-specific effects on protein synthesis and cell proliferation are seen. The compositions are formulated to deliver a dosage of HF that will have specific effects on pro-inflammatory cytokine expression or ECM architecture in the 2-40 nM range, but keep the dosage below levels that can cause non-specific effects.

[1] = system: amino acid response (AAR) pathway: eIF2α, ATF4; experiment: eIF2α phosphorylation and ATF4 protein levels in T cells (immunoblot); format: cell-based, mouse
Method: Whole cell lysates were prepared 4 hours-post TCR activation and immunoblotting was performed with the indicated antibodies. ATF4 protein is indicated by arrowhead. NS-non-specific band.
FIG. 12E is an illustration depicting immunoblot analysis of purified CD4^+ CD25^− T cells activated through the TCR for the indicated times without exogenous cytokines in the presence of either 10 nM MAZ1310 or 10 nM HF as indicated. Whole cells lysates were prepared during the timecourse and immunoblotting was performed.
Western blotting: Whole cell lysates were generated from T cells activated for the indicated times. For STAT3 and Smad2/3 western blots cells were harvested, washed in PBS and lysed in 50 mM Tris, pH 7.4, 0.1% SDS, 1% Triton-X100, 140 mM NaCl, 1 mM EDTA, 1 mM EGTA supplemented with protease inhibitors tablets (Roche-Germany), 1 mM NaF and 1 mM Na3VO4. For eIF2α and ATF4 western blots, cells were harvested as above and lysed in 50 mM Tris, pH 7.4, 2% SDS, 20% glycerol and 2 mM EDTA supplemented with protease and phosphatase inhibitors as above. All lysates were cleared via centrifugation and 15-30 μg of protein was resolved by SDS-PAGE. Protein was transferred to nitrocellulose membranes, blocked and blotted using specific antibodies. Antibodies used for western blot analysis were anti-phospho-Smad2, anti-STAT3 (pY705), anti-STAT3, anti-eIF2α^pS51, anti-eIF2α, anti-GCN2^pT898, anti-GCN2 (all from cell signaling technology, Danvers, Mass.). Anti-ATF4/CREB2 and anti-β-actin were purchased from Santa Cruz biotechnology (Santa Cruz, Calif.). HRP-conjugated secondary antibodies were all purchased from Sigma, with the exception of HRP-conjugated anti-armenian hamster antibody (Jackson Immunoresearch—West Grove, Pa.).
To address directly whether HF activates the AAR pathway, eIF2a phosphorylation and ATF4 protein levels in HF-treated T cells were examined. HF induced detectable eIF2α phosphorylation at 2.5 nM, and this effect plateaued at 5-10 nM HF (FIG. 12D). […] AAR activation was a general consequence of HF treatment: HF induced eIF2α phosphorylation not only in T cells activated in Th17-priming conditions, but also in resting naïve T cells and T cells activated in ThN, Th1, Th2 and iTreg polarizing conditions (FIG. 12F). […] (Rathmell, J. C., Elstrom, R. L., Cinalli, R. M. & Thompson, C. B. Activated Akt promotes increased resting T cell size, CD28-independent T cell growth, and development of autoimmunity and lymphoma. Eur J Immunol 33, 2223-32 (2003)). Thus, the rapid activation of the AAR pathway by HF underlies both its selective inhibition of Th17 differentiation and its effects on fibroblasts. (Pines, M. & Nagler, A. Halofuginone: a novel antifibrotic therapy. Gen Pharmacol 30, 445-50 (1998)).

## O=C(CC1NCCCC1O)Cn1cnc2cc(Br)c(Cl)cc2c1=O (racemic) [HF, 7-bromo-6-chloro-3-[3-(3-hydroxy-2-piperidinyl)-2-oxopropyl]-4(3H)-quinazolinone]
T-cells and fibroblasts
  dose range of highly specific effects on pro-inflammatory and pro-fibrotic gene expression: 2 to 40 nM
[1]; 10 nM HF
  time at which eIF2α phosphorylation reached maximum levels: ≤ 2 h
  time until which ATF4 protein continued to accumulate: 4 h
[1]; 4 hours post TCR activation
  concentration at which eIF2α phosphorylation plateaued: 5 to 10 nM
  concentration giving highest ATF4 expression levels: 5 to 10 nM
  concentration inducing detectable eIF2α phosphorylation: 2.5 nM
  higher concentrations at which ATF4 expression levels were reduced: 20 to 40 nM
